Source: patent publication US7517874B2 (priority 2007, dated 2009)
Counter-ions that a name gives are not always drawn. Like-named read-outs stand apart in the source and are kept apart here.

Key:
[1] = biological target: human CB1 receptor (hCB1) (Homo sapiens, UniProt P21554); assay: cell-based; assay type: cell-based
How it was run: (§1)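 Readout: LANCE TR-FRET cAMP, back-calculated from a concurrent standard curve and scaled between forskolin-only and forskolin + 1 μM CP55,940 wells. EC50 and intrinsic activity came from four-parameter fits.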

rat CB2 receptor (rCB2) = biological target: T1, rat CB2 receptor (rCB2) (Rattus norvegicus, UniProt Q9QZN9); assay: cell-based; assay type: cell-based; conditions: for +/− RCB2: agonist or inverse agonist at rCB2
T1 sequence (Q9QZN9 1-360): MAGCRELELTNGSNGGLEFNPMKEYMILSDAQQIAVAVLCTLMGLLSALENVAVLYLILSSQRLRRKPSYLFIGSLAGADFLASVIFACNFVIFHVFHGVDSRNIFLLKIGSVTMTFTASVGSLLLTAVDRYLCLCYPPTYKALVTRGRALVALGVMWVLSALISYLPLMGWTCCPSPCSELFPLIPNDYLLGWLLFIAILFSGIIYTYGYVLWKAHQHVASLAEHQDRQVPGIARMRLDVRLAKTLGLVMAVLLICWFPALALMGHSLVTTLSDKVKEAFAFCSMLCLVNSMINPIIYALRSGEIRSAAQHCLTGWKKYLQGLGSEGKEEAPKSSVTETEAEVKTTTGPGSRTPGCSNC
How it was run: as §1

[2] = groups >100 nM-10 μM and >10 μM, cAMP, CHO-K1 hCB1, read-out: EC50 HCB1

human CB1 receptor (hCB1), sequence (P21554 whole entry): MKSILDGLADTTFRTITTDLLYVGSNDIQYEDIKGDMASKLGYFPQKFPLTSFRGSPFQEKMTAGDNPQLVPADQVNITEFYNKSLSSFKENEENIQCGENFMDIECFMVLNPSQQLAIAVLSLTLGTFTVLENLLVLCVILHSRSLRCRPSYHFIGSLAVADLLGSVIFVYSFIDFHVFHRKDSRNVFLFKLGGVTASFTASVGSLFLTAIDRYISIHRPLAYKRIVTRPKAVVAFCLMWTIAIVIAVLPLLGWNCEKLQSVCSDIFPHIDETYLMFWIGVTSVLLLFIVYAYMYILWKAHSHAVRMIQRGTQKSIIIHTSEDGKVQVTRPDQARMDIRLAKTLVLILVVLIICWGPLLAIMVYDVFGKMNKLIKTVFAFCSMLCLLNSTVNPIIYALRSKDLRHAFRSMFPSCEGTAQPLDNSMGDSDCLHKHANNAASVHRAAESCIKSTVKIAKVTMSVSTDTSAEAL

SMILES	EC50 [1]	+/− RCB2 (rat CB2 receptor (rCB2))	EC50 [1, 2]	EC50 (rat CB2 receptor (rCB2))	EC50 (rat CB2 receptor (rCB2); groups >100 nM-10 μM and >10 μM, cAMP, CHO-K1 rCB2, read-out: EC50 RCB2)
CNC(=O)[C@@H](NC(=O)c1nc(-c2ccc(C)c(F)c2)n2c1CN(C)CC2)C(C)(C)C [Compound 240, (S)-N-(3,3-dimethyl-1-(methylamino)-1-oxobutan-2-yl)-3-(3-fluoro-4-methylphenyl)-7-methyl-5,6,7,8-tetrahydroimidazo[1,5-a]pyrazine-1-carboxamide]	> 10000 nM	−			
CC12CCC(C1)C(C)(C)C2NC(=O)c1nc(-c2ccccc2)n2c1CNCC2 (stereo not shown) [Compound 39, 3-Phenyl-N-(1,3,3-trimethylbicyclo[2.2.1]heptan-2-yl)-5,6,7,8-tetrahydro-imidazo[1,5-a]pyrazine-1-carboxamide HCl]	> 10000 nM	+			
CN1CCn2c(-c3ccccc3)nc(C(=O)CC(C)(C)C)c2C1 [Compound 292, 3,3-dimethyl-1-(7-methyl-3-phenyl-5,6,7,8-tetrahydroimidazo[1,5-a]pyrazin-1-yl)butan-1-one]		−	> 10000 nM		
C[C@H](NC(=O)c1nc(-c2ccccc2)n2c1CN(CCO)CC2)c1ccccc1 [Compound 146, (S)-7-(2-hydroxyethyl)-3-phenyl-N-(1-phenylethyl)-5,6,7,8-tetrahydroimidazo[1,5-a]pyrazine-1-carboxamide]	> 10000 nM	−			
Cc1noc([C@@H](NC(=O)c2nc(-c3ccccc3)n3c2CN(CC(C)C)CC3)C(C)(C)C)n1 [Compound 90, (S)-N-(2,2-dimethyl-1-(3-methyl-1,2,4-oxadiazol-5-yl)propyl)-7-isobutyl-3-phenyl-5,6,7,8-tetrahydroimidazo[1,5-a]pyrazine-1-carboxamide]	> 10000 nM	−			
COC(=O)[C@@H](NC(=O)c1nc(-c2ccccc2)n2c1CN(C)CCC2)C(C)(C)C [Compound 467, (S)-methyl 3,3-dimethyl-2-(8-methyl-3-phenyl-6,7,8,9-tetrahydro-5H-imidazo[1,5-a][1,4]diazepine-1-carboxamido)butanoate]	> 10000 nM	+			
CNC(=O)[C@@H](NC(=O)c1nc(-c2ccccc2)n2c1CN(C(C)=O)CCC2)C(C)(C)C [Compound 463, (S)-8-acetyl-N-(3,3-dimethyl-1-(methylamino)-1-oxobutan-2-yl)-3-phenyl-6,7,8,9-tetrahydro-5H-imidazo[1,5-a][1,4]diazepine-1-carboxamide]	> 10000 nM	+			
O=C(c1nc(-c2ccccc2)n2c1CN(S(=O)(=O)c1ccc(F)cc1)CC2)N1CCOCC1 [Compound 105, (7-(4-fluorophenylsulfonyl)-3-phenyl-5,6,7,8-tetrahydroimidazo[1,5-a]pyrazine-1-yl)(morpholino)methanone]		−	> 10000 nM		
CNC(=O)[C@@H](NC(=O)c1nc(/C=C/C(C)(C)C)n2c1CN(C)CC2)C(C)(C)C [Compound 263, (S,E)-N-(3,3-dimethyl-1-(methylamino)-1-oxobutan-2-yl)-3-(3,3-dimethylbut-1-enyl)-7-methyl-5,6,7,8-tetrahydroimidazo[1,5-a]pyrazine-1-carboxamide]	> 10000 nM	+			
CC(C)CN1CCn2c(-c3ccccc3)nc(C(=O)N[C@H](C(=O)N(C)C)C(C)(C)C)c2C1 [Compound 80, (S)-N-(1-(dimethylamino)-3,3-dimethyl-1-oxobutan-2-yl)-7-isobutyl-3-phenyl-5,6,7,8-tetrahydroimidazo[1,5-a]pyrazine-1-carboxamide]	> 10000 nM	−			
CN1CCn2c(-c3ccccc3)nc(C(=O)CCCc3ccccc3)c2C1 [Compound 294, 1-(7-methyl-3-phenyl-5,6,7,8-tetrahydroimidazo[1,5-a]pyrazin-1-yl)-4-phenylbutan-1-one]		−	> 10000 nM		
CNC(=O)[C@@H](NC(=O)c1nc(-c2ccc(C(=O)OC)cc2F)n2c1CN(C)CCC2)C(C)(C)C [Compound 387, (S)-methyl 4-(1-(3,3-dimethyl-1-(methylamino)-1-oxobutan-2-ylcarbamoyl)-8-methyl-6,7,8,9-tetrahydro-5H-imidazo[1,5-a][1,4]diazepin-3-yl)-3-fluorobenzoate]	> 10000 nM			> 10000 nM	
CNC(=O)[C@@H](NC(=O)c1nc(-c2cccc(-c3ccccc3)c2)n2c1CN(C)CCC2)C(C)(C)C [Compound 383, (S)-3-(biphenyl-3-yl)-N-(3,3-dimethyl-1-(methylamino)-1-oxobutan-2-yl)-8-methyl-6,7,8,9-tetrahydro-5H-imidazo[1,5-a][1,4]diazepine-1-carboxamide]	> 10000 nM	−			
CNC(=O)[C@@H](NC(=O)c1nc(-c2ccccc2)n2c1CN(c1cnccn1)CC2)C(C)(C)C [Compound 301, (S)-N-(3,3-dimethyl-1-(methylamino)-1-oxobutan-2-yl)-3-phenyl-7-(pyrazin-2-yl)-5,6,7,8-tetrahydroimidazo[1,5-a]pyrazine-1-carboxamide]	> 10000 nM			> 10000 nM	
CCS(=O)(=O)N1CCn2c(-c3ccccc3)nc(C(=O)NCC3CCOCC3)c2C1 [Compound 117, 7-(ethylsulfonyl)-3-phenyl-N-((tetrahydro-2H-pyran-4-yl)methyl)-5,6,7,8-tetrahydroimidazo[1,5-a]pyrazine-1-carboxamide]		−	> 10000 nM		
CNC(=O)[C@@H](NC(=O)c1nc(-c2cc(C)ccc2F)n2c1CN(C)CCC2)C(C)(C)C [Compound 362, (S)-N-(3,3-dimethyl-1-(methylamino)-1-oxobutan-2-yl)-3-(2-fluoro-5-methylphenyl)-8-methyl-6,7,8,9-tetrahydro-5H-imidazo[1,5-a][1,4]diazepine-1-carboxamide]	> 10000 nM	+			
CNC(=O)[C@@H](NC(=O)c1nc(C=C(C)C)n2c1CN(C)CCC2)C(C)(C)C [Compound 377, (S)-N-(3,3-dimethyl-1-(methylamino)-1-oxobutan-2-yl)-8-methyl-3-(2-methylprop-1-enyl)-6,7,8,9-tetrahydro-5H-imidazo[1,5-a][1,4]diazepine-1-carboxamide]	> 10000 nM	+			
CNC(=O)[C@H](CC(C)C)NC(=O)c1nc(-c2ccc(Cl)c(F)c2)n2c1CN(C)CC2 [Compound 277, (S)-3-(4-chloro-3-fluorophenyl)-7-methyl-N-(4-methyl-1-(methylamino)-1-oxopentan-2-yl)-5,6,7,8-tetrahydroimidazo[1,5-a]pyrazine-1-carboxamide]	> 10000 nM	−			
CNC(=O)[C@@H](NC(=O)c1nc(-c2ccc(C)cc2F)n2c1CN(CC1CC1)CCC2)C(C)(C)C [Compound 323, (S)-8-(cyclopropylmethyl)-N-(3,3-dimethyl-1-(methylamino)-1-oxobutan-2-yl)-3-(2-fluoro-4-methylphenyl)-6,7,8,9-tetrahydro-5H-imidazo[1,5-a][1,4]diazepine-1-carboxamide]	> 10000 nM	−			
CNC(=O)[C@@H](NC(=O)c1nc(C2CCCC2)n2c1CN(C)CC2)C(C)(C)C [Compound 303, (S)-3-cyclopentyl-N-(3,3-dimethyl-1-(methylamino)-1-oxobutan-2-yl)-7-methyl-5,6,7,8-tetrahydroimidazo [1,5-a]pyrazine-1-carboxamide]	> 10000 nM	+			
CC(C)(C)C(=O)N1CCn2c(-c3ccccc3)nc(C(=O)NC3CCCCC3)c2C1 [Compound 137, N-cyclohexyl-3-phenyl-7-pivaloyl-5,6,7,8-tetrahydroimidazo[1,5-a]pyrazine-1-carboxamide]		−	> 10000 nM		
CNC(=O)[C@@H](NC(=O)c1nc(-c2ccccc2)n2c1CNCC2)C(C)(C)C [Compound 2, (S)-N-(3,3-dimethyl-1-(methylamino)-1-oxobutan-2-yl)-3-phenyl-5,6,7,8-tetrahydroimidazo[1,5-a]pyrazine-1-carboxamide]	> 10000 nM	+			
CNC(=O)[C@@H](NC(=O)c1nc(-c2ccccc2)n2c1CN(S(=O)(=O)c1ccc(Cl)cc1)CC2)C(C)(C)C [Compound 106, (S)-7-(4-chlorophenylsulfonyl)-N-(3,3-dimethyl-1-(methylamino)-1-oxobutan-2-yl)-3-phenyl-5,6,7,8-tetrahydroimidazo[1,5-a]pyrazine-1-carboxamide]	> 10000 nM	−			
CNC(=O)[C@@H](NC(=O)c1nc(-c2ccccc2)n2c1CN(S(=O)(=O)c1cccc(F)c1)CC2)C(C)(C)C [Compound 99, (S)-N-(3,3-dimethyl-1-(methylamino)-1-oxobutan-2-yl)-7-(3-fluorophenylsulfonyl)-3-phenyl-5,6,7,8-tetrahydroimidazo[1,5-a]pyrazine-1-carboxamide]	> 10000 nM	−			
CNC(=O)[C@@H](NC(=O)c1nc(-c2cccs2)n2c1CNCC2)C(C)(C)C [Compound 16, (S)-N-(3,3-dimethyl-1-(methylamino)-1-oxobutan-2-yl)-3-(thiophen-2-yl)-5,6,7,8-tetrahydroimidazo[1,5-a]pyrazine-1-carboxamide]	> 10000 nM	+			
CC(C)(C)CNC(=O)c1nc(-c2ccccc2)n2c1CNCC2 [Compound 24, N-neopentyl-3-phenyl-5,6,7,8-tetrahydroimidazo[1,5-a]pyrazine-1-carboxamide]			> 10000 nM		> 10000 nM
